Test results reported in US11497813B2, “Bortezomib conjugates and methods using same” (Frank EBETINO et al., priority 2015, dated 2022).
Entries after “also recorded” stand apart in the source; their conditions may differ.

What was measured:
Myeloma cells = test: Myeloma cell growth in vitro (living cell count); type: cell-based; settings: 24 hrs, living cell numbers counted
Description: Myeloma cells were treated with different concentrations of testing compounds for 24 hrs. The living cell numbers were counted. *p<0.05 vs. Btz.

OVX mice = test: OVX-induced bone loss in C57/B6 mice; type: in vivo, mouse
Description: Ovariectomy was carried out in 10-week-old female C57/B6 mice.
Histomorphometry (FIG. 20A) and biomechanical testing (FIG. 20B) were also done. These experiments were done using C57/B6 mice, 10 w, treatment at 4 w post-OVX for 4 w.

osteoclasts = test: Osteoclast formation and bone resorption on bone slices pre-incubated with compound; type: cell-based, mouse
Description: FIG. 5A is a scheme of an exemplary synthesis of compound BP-Btz1. FIG. 5B is a series of images of bone slices pre-incubated with 1 μM BP-Btz1, Btz, or bisphosphonate (BP) overnight. Drug solutions were removed and bone slices were washed with PBS extensively. […] (BM) cells from UB^G76V-GFP mice were cultured on bone slices in the presence of M-CSF and RANKL for 9 days. Top images (a): GFP^+ cells were observed under a fluorescence microscope and GFP signal intensity was quantified. Middle images (b): bone slices were fixed and subjected to TRAP staining for osteoclasts (OCs). OC #/slice were counted. Bottom images (c): cells were removed from slices. Toluidine blue staining was performed and pit areas/slice were counted. FIG. 5C is a series of images of murine BM cells cultured and stained for ALP. FIG. 5D is a series of images of human MSCs cultured and stained for ALP. Murine BM cells and human MSCs were cultured in the OB-inducing medium plus different concentrations of BP-Btz1 or Btz for 4 or 6 days, respectively. Cells were stained for ALP. The ALP^+ areas were measured by Image J. *P<0.05 vs. Btz-treated cells.
As a control, the effects of the non-bioactive bisphosphonate (BP) that would be released in the bone compartment were also studied. […] In a pivotal in vitro study, this BP-Btz1 and Btz were independently incubated with bone slices for 24 hours, after which the bone slices were removed and placed in culture wells with fresh media along with osteoclast precursors. […]
1. […] Following proteasome inhibitor administration, Ub^G76V accumulates and GFP fluorescence is readily apparent. GFP^+ OCs were detected at 4 and 8 hrs after adding Btz to OC cultures, which disappeared at 24 hrs. […] The number and area of OCs and resorption pits are assessed. The appearance, intensity and distribution of GFP^+ cells on bone slices and plastic surrounding bone slices during OC formation is observed and recorded. […] Area of ALP^+ and mineralized bone nodule, and the expression levels of OB marker genes (ALP, osteocalcin, Runx2) are measured. […]

mice = test: Survival of mice treated with Btz; type: in vivo, mouse
Source text: BP-Btz is expected to have a higher efficacy on 1) reducing OVX-induced bone loss and 2) promoting fracture healing in aged mice with lesser adverse systemic effects than those of Btz. A critical difference between BP-Btz and Btz is that in vivo BP-Btz brings Btz to bone, thereby exerting its bioactivity locally, while Btz can exert its bioactivity systemically. It is hypothesized that BP-Btz conjugates should have similar or better positive bioactivities than Btz on bone volume, but with a significant reduction in side effects. In humans, the toxicities of Btz include peripheral neuropathy and thrombocytopenis (Weathington and Mallampalli, 2014, J. Clin. Invest. 124:6-12). Little is known the toxicity of Btz in mice. […] Although not wishing to be bound by any particular theory, these adverse effects are thought to be due to the systemic distribution of the drug. Thus, the generation of bone-targeted Btz could meet a critical clinical need, by and increasing the local drug concentration to capitalize on the efficacy of BTz while reducing systemic side effects. Because proteasome inhibitors could increase bone volume in normal and OVX mice, and promote fracture healing in adult mice (Khedgikar et al., 2013, Cell Death Dis. 4:e778; Maseda et al., 2008, Cell Death Differ. 15:600-612), OVX and fracture models are used to examine the efficacy of the leading BP-Btz conjugates on bone. […]

[1] = OVX C57/B6 mice, treatment at 4 w post-OVX for 4 w

Structure (SMILES): CC(C)C[C@H](NC(=O)[C@H](Cc1ccccc1)NC(=O)c1cnccn1)B1OCCN(CCOC(=O)NC(P(=O)(O)O)P(=O)(O)O)CCO1 [BP-Btz1]
- myeloma cell growth (Myeloma cells): inhibits myeloma cell growth
- bone mass (OVX mice; [1]): increases bone mass and strength in OVX mice as effectively as Btz
- bone strength (OVX mice; [1]): increases bone mass and strength in OVX mice as effectively as Btz
- OVX-induced bone loss (OVX mice; OVX mice): reduces OVX-induced bone loss
- osteoblast differentiation (OVX mice; OVX mice): more potently promotes osteoblast differentiation
- CFU-ALP colony formation (OVX mice; cells from OVX mice): increases CFU-ALP colony formation
- CFU-F colony formation (OVX mice; cells from OVX mice): increases CFU-F colony formation
- osteoclast function (osteoclasts): maintains its bioactivity on inhibition of OCs; also recorded: inhibits osteoclast function
- Formation and activity of osteoclasts on pre-incubated bone slices (osteoclasts; bone slices pre-incubated with compound (1 μM, 24 hours), removed, then osteoclast precursors in fresh media): significantly reduced
- anti-osteoclast activity on bone slices (osteoclasts; in vitro studies on bone slices, compared with Btz): anti-osteoclast activity equivalent to than Btz itself

Structure (SMILES): CC(C)C[C@H](NC(=O)[C@H](Cc1ccccc1)NC(=O)c1cnccn1)B(O)O [Btz, [(1R)-3-methyl-1-[[(2S)-1-oxo-3-phenyl-2[(pyrazinylcarbonyl)amino]propyl]amino]butyl] boronic acid]
- survival rate (mice; aged mice): 53%
- survival (mice; young mice): 94%
